Data on 14 compounds can be found in patent US20210401809A1, “PHARMACEUTICAL COMPOUNDS” (Sareum Limited, priority 2016, published 2021).

The subject of test [1] is TYK2 dependent cell lines (T-ALL cells). The conditions noted are these: Sanda et al.; cited from earlier work.
Test [2] concerns CCRF-CEM cells (TYK2-dependent T-ALL). As to the kind of experiment: Cell proliferation assay (ATPlite, 7 days). The class given is cell-based. The conditions noted are these: Homo sapiens, 168 h. The method, then:
(§1) Jurkat, MOLT-4, CCRF-CEM and CCRF-HSB-2 cells are all TYK2-dependent T-ALL cells. Loucy cells are TYK2-independent T-ALL cell lines. Dexamethasone, Etoposide and Paclitaxel were used as positive controls. Compound effects were studied 7 days after compound addition […] Luminescent product was detected using a BMG FLUOstar plate reader. • The data were analysed using a 4-parameter logistic equation in GraphPad Prism.

The subject of test [3] is CCRF-HSB-2 cells (TYK2-dependent T-ALL). As to the kind of experiment: Cell proliferation assay (ATPlite, 7 days). The class given is cell-based. The conditions noted are these: Homo sapiens, CCRF-HSB-2, 168 h. The method, then: as §1
Test [4] has as its system Jurkat cells (TYK2-dependent T-ALL). Kind of test: Cell proliferation assay (ATPlite, 7 days). The class given is cell-based. The conditions noted are these: Homo sapiens, 168 h. The method, then: as §1
Test [5] has as its system Loucy cells (TYK2-independent T-ALL). As to the kind of experiment: Cell proliferation assay (ATPlite, 7 days). The class given is cell-based. The conditions noted are these: 168 h. The method, then: as §1
The subject of test [6] is MOLT-4 cells (TYK2-dependent T-ALL). As to the kind of experiment: Cell proliferation assay (ATPlite, 7 days). The conditions noted are these: Homo sapiens, MOLT-4, 168 h. The class given is cell-based. The method, then: as §1
Test [7] has as its target T1, JAK1 (Homo sapiens, UniProt P23458).
T1 construct: 866-1154; GST (N); purchased Reaction Biology Corp. (contract assay); host or cells: Baculovirus in Sf21 insect cells
As to the kind of experiment: In vitro enzyme inhibition, 33P-ATP filter kinase assay (Reaction Biology). The class given is biochemical. Here is the method: (§2) Compounds of the invention were assayed for their ability to inhibit TYK2 kinase and other JAK kinases.
(§3) Substrates and kinases used in the assays are identified in Table 2 below.
(§4) JAK3tide=[Ac-[…]-NH2]

Test [8] addresses T2, JAK3 (Homo sapiens, UniProt P52333).
T2 construct: 781-1124; GST (N); purchased Reaction Biology Corp. (contract assay); host or cells: Baculovirus in Sf21 insect cells
Described as above. The class given is biochemical. The method, then:
as §2, §3, §4

In test [9] the target is T3, TYK2 kinase (Homo sapiens, UniProt P29597).
T3 construct: 833-1187; GST (N); purchased Reaction Biology Corp. (contract assay); host or cells: Baculovirus in Sf21 insect cells
The description is as above. The class given is biochemical. The method, then:
as §2, §3, §4

Test [10] has as its target T4, JAK2 (Homo sapiens, UniProt O60674).
T4 construct: 809-1132; GST (N); '+g'; purchased Reaction Biology Corp. (contract assay); host or cells: Baculovirus in Sf21 insect cells
The test is described as above. The class given is biochemical. Here is the method: as §2, §3

T3 sequence (P29597 833-1187): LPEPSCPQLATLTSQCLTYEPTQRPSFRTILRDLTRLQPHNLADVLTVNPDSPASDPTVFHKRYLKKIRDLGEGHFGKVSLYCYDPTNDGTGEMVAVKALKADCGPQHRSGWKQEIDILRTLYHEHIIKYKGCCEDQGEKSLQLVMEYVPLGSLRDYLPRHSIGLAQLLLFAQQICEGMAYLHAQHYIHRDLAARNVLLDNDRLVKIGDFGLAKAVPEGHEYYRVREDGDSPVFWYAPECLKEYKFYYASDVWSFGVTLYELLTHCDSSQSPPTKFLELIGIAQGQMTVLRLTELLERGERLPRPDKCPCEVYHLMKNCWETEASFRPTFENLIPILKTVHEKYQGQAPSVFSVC
T2 sequence (P52333 781-1124): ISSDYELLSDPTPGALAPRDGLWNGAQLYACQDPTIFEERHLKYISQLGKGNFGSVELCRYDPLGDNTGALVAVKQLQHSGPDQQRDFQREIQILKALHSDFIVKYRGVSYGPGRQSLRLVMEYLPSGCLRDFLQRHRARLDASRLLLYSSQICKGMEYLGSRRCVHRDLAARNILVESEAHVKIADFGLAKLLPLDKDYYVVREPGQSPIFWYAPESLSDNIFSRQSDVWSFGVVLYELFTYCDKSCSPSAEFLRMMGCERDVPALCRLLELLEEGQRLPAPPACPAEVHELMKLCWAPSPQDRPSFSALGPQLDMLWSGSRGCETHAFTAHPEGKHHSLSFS
T4 sequence (O60674 809-1132): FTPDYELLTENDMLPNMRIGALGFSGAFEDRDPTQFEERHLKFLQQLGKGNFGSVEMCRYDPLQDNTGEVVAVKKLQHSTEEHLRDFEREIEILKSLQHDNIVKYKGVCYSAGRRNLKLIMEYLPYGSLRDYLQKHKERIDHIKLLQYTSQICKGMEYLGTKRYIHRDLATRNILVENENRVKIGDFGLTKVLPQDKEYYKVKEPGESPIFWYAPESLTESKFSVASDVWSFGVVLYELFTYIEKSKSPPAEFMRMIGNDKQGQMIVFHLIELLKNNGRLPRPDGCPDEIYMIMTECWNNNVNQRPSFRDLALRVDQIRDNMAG
T1 sequence (P23458 866-1154): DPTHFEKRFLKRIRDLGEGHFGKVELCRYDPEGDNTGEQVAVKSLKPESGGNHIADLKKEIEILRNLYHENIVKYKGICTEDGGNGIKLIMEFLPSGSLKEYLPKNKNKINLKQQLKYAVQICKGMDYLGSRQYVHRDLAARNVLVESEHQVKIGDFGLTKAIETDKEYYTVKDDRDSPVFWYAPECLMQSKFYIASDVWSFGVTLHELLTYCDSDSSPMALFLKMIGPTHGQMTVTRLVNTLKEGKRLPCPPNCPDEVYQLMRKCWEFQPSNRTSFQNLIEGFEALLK

On to `C[C@@H]1CCN(C(=O)CC#N)C[C@@H]1N(C)c1ncnc2[nH]ccc12` [CP-690550], for which the “effect against the T-ALL cells” value in [1] is recorded as “ineffective”.

Regarding `CS(=O)(=O)c1ccc(Nc2oc(-c3c(Cl)cccc3Cl)nc2C(N)=O)cc1` [Compound 19, 2-(2,6-dichloro-phenyl)-5-(4-methanesulfonyl-phenylamino)-oxazole-4-carboxylic acid amide], the inhibition at 30 µM in test [2] (30 μM, read-out: Cell proliferation inh. @ 30 μM, CCRF-CEM) turned out to be 34%; in test [4] (30 μM, read-out: Cell proliferation inh. @ 30 μM, Jurkat), 8%. Moreover, the IC50 in test [3] was determined as 17 µM; in test [5] it was 20 µM; in [6] it was 12 µM.

As for `CS(=O)(=O)c1ccc(Nc2oc(-c3c(F)cccc3Cl)nc2C(N)=O)cc1` [Compound 20, 2-(2-chloro-6-fluoro-phenyl)-5-(4-methanesulfonyl-phenylamino)-oxazole-4-carboxylic acid amide], the IC50 in test [2] is 8.9 µM; in [3], 2.8 µM; in [4], 2.1 µM; in test [5], 3.9 µM; in [6] it was 3.1 µM.

`NC(=O)c1nc(-c2c(F)cccc2Cl)oc1Nc1ccc(C(=O)N[C@H]2CCCNC2)cc1` [Compound 23, (S) 2-(2-chloro-6-fluoro-phenyl)-5-[4-(piperidin-3-ylcarbamoyl)-phenylamino]-oxazole-4-carboxylic acid amide]: the IC50 stood at 63.3 nM in test [7], 240 nM in test [8], 1.89 nM in test [9] and 61.9 nM in [10].

Regarding `NC(=O)c1nc(-c2c(F)cccc2Cl)oc1Nc1ccc(C(=O)N[C@@H]2CCCNC2)cc1` [Compound 24, (R) 2-(2-chloro-6-fluoro-phenyl)-5-[4-(piperidin-3-ylcarbamoyl)-phenylamino]-oxazole-4-carboxylic acid amide], the IC50 in [7] worked out at 157 nM; in [8] it was 167 nM; in test [9], 5.11 nM; in [10], 125 nM.

Take `CN1CCC(NC(=O)c2ccc(Nc3oc(-c4c(F)cccc4Cl)nc3C(N)=O)cc2)CC1` [Compound 26, 2-(2-chloro-6-fluoro-phenyl)-5-[4-(1-methyl-piperidin-4-ylcarbamoyl)-phenylamino]-oxazole-4-carboxylic acid amide]: the IC50 in test [7] turned out to be 100 nM; in [8], 132 nM; in test [9], 2.98 nM; in test [10] it was 87.8 nM.

For `NC(=O)c1nc(-c2c(Cl)cccc2Cl)oc1Nc1ccc(C(=O)N[C@H]2CCCNC2)cc1` [Compound 27, (S) 2-(2,6-dichloro-phenyl)-5-[4-(piperidin-3-ylcarbamoyl)-phenylamino]-oxazole-4-carboxylic acid amide], the 50% inhibitory concentration (IC50) in test [7] was 72.2 nM; in test [8], 233 nM; in test [9], 1.21 nM; in test [10], 93.3 nM.

Regarding `NC(=O)c1nc(-c2c(Cl)cccc2Cl)oc1Nc1ccc(C(=O)N[C@@H]2CCCNC2)cc1` [Compound 28, (R) 2-(2,6-dichloro-phenyl)-5-[4-(piperidin-3-ylcarbamoyl)-phenylamino]-oxazole-4-carboxylic acid amide], the IC50 worked out at 108 nM in test [7], 194 nM in test [8], 1.77 nM in test [9] and 122 nM in test [10].

Turning to `CN1CCC(NC(=O)c2ccc(Nc3oc(-c4c(Cl)cccc4Cl)nc3C(N)=O)cc2)CC1` [Compound 30, 2-(2,6-dichloro-phenyl)-5-[4-(1-methyl-piperidin-4-ylcarbamoyl)-phenylamino]-oxazole-4-carboxylic acid amide], the IC50 in [7] came out at 83.4 nM; in [8] it was 164 nM; in test [9] it was 1.52 nM; in test [10] it was 106 nM.

Consider `CCS(=O)(=O)c1ccc(Nc2oc(-c3c(F)cccc3F)nc2C(N)=O)cc1` [Compound 31, 2-(2,6-difluoro-phenyl)-5-(4-ethanesulfonyl-phenylamino)-oxazole-4-carboxylic acid amide], for which the concentration for half-maximal inhibition (IC50) in [7] worked out at 222 nM; in test [8] it was 390 nM; in [9], 4.41 nM; in test [10], 213 nM.

As for `CC(C)S(=O)(=O)c1ccc(Nc2oc(-c3c(F)cccc3F)nc2C(N)=O)cc1` [Compound 33], the IC50 in [7] worked out at 135 nM; in test [8], 516 nM; in test [9] it was 5.47 nM; in test [10] it was 153 nM.

As for `C[C@@H]1C[C@H]2[C@@H]3CCC4=CC(=O)C=C[C@]4(C)[C@@]3(F)[C@@H](O)C[C@]2(C)[C@@]1(O)C(=O)CO` [Dexamethasone, reference compound], the IC50 in test [2] is 59 µM; in [3] it was 49 µM. Besides, the inhibition at 10 µM in test [4] (10 μM, read-out: Cell proliferation inh. @ 10 μM, Jurkat) stood at 5%; in [5] (10 μM, read-out: Cell proliferation inh. @ 10 μM, Loucy) it was 25%; in [6] (10 μM, read-out: Cell proliferation inh. @ 10 μM, MOLT-4) it was 21%.

For `COc1cc([C@@H]2c3cc4c(cc3[C@@H](O[C@@H]3O[C@@H]5CO[C@@H](C)O[C@H]5[C@H](O)[C@H]3O)[C@H]3COC(=O)[C@H]23)OCO4)cc(OC)c1O` [Etoposide, reference compound], the IC50 in test [2] turned out to be 17 µM; in [3] it was 4.7 µM; in [4] it was 94 µM; in [5] it was 33 µM; in [6], 7.7 µM.

Regarding `CC(=O)O[C@H]1C(=O)[C@@]2(C)[C@H]([C@H](OC(=O)c3ccccc3)[C@]3(O)C[C@H](OC(=O)[C@H](O)[C@@H](NC(=O)c4ccccc4)c4ccccc4)C(C)=C1C3(C)C)[C@]1(OC(C)=O)CO[C@@H]1C[C@@H]2O` [Paclitaxel, reference compound], the IC50 amounted to 4.4 µM in test [2]; 1.3 µM in test [3]; 1.8 µM in test [4]; 2.2 µM in [5]; 0.66 µM in test [6].
